According to US12606568B2, “SMARCA degraders and uses thereof” (Kymera Therapeutics, Inc., priority 2020, dated 2026):

Assays:
Assay type in all cases: cell-based
SMARCA4 = molecular target: T1, SMARCA4 (Homo sapiens, UniProt P51532); assay: SMARCA4 Western blot MV4-11 degradation; details: for Dmax: MV4-11, MV4-11 cells, read-out: SMARCA4 MSD MV411 degradation 24 h: average Dmax %; for Dmax / DC50: 24 h; for DC50: read-out: SMARCA4 MSD MV411 degradation 24 h: Mean external-Abs DC50
T1 construct: SMARCA2 and SMARCA4 protein degradation in MV4-11 cells; endogenous in cells; host or cells: MV4-11
Experimental: (§1) Example 54. SMARCA2 and SMARCA 4 Western Blot MV4-11 Degradation
(§2) Cells were seeded into 6-well plates (MV4-11: 4×10^6 cells/well/1 ml) and 1 ml of 2× compound solution was added into the well to make the final concentration and the plates were mixed well and incubated for 24 hours (No cytotoxicity was observed). The cell were collected with media and spun at 3000 rpm for 5 minutes. The supernatant was aspirated and the well and the cells were washed with cold PBS once and combined for centrifugation again; the supernatant aspirated again. 200 ul pre-chilled RIPA lysis buffer (Boston BioProducts BP-115D) with protease/phosphatase inhibitor (Roche 05892791001/Roche 04906837001) was directly added into the tube to lyze the cells for 20 minutes on ice. The cell lysate were collected into EP tubes and spun at 13000 rpm for 20 minutes and 72 ul supernatant was transferred to a fresh EP tube containing 18 ul of 5× loading buffer (Beyotime Bio P0015) to make the loading samples. The samples were heated to 100° C. for 10 minutes and cooled to RT and microcentrifuged. 20 ul of samples were loaded onto SDS-PAGE gel (Novex, WG1402BOX) and the gel was run at 80 V for 20 minutes and 120 V for 1.5 hours. The samples were electrotransfer to a NC membrane using wet-transfer method with 250 mA for 2.5 hours. The membrane was blocked with LICOR blocking buffer (LI-COR, 927-50000) for 1 hour. The membrane was washed three times with TBST (CST #9997S), 5 minutes each. Incubation was performed with primary antibody prepared in blocking buffer with 0.1% Tween-20 (Solarbio, P8220) at 4° C. overnight (Anti-SMARCA2/BRM antibody (ab15597) 1:500; Anti-BRG1 antibody [EPR3912] (ab108318) 1:1000; Rabbit anti-Baf180 antibody [EPR15860] (Abcam, ab196022) 1:1000; mouse anti-beta-Actin (8H10D10) (CST #3700) 1:10000). The membrane was washed three times with TBST, 5 minutes each. Incubation with secondary antibody was performed for 1 hour at RT (anti-rabbit IgG (Licor, 926-32211) 1:5000; anti-mouse IgG (LI-COR, 926-68070) 1:5000). The membrane was washed three times with TBST, 5 minutes each and lastly the LiCOR was read.
(§3) The letter codes for SMARCA degradation potency (DC50) include: A (<100 nM), B (100-500 nM), C (501-1000 nM), and D (>1000 nM). The letter codes for the percentage of SMARCA degradation after 24 hours (Dmax %) include: A (>90% degradation), B (>70-90% degradation), C (50-70% degradation), and D (<50% degradation).

SMARCA2 [1] = molecular target: T2, SMARCA2 (Homo sapiens, UniProt P51531); assay: SMARCA2 Western blot MV4-11 degradation; design: SMARCA2 and SMARCA4 protein degradation in MV4-11 cells; endogenous in cells; host or cells: MV4-11; details: for Dmax: MV4-11, MV4-11 cells, read-out: SMARCA2 MSD MV411 degradation 24 h: average Dmax %; for Dmax / DC50: 24 h; for DC50: read-out: SMARCA2 MSD MV411 degradation 24 h: Mean external-Abs DC50
Experimental: as §1, §2, §3

SMARCA2 [2] = molecular target: T2, SMARCA2; assay: MSD SMARCA2 degradation in A549 cell line; design: endogenous in cells; details: for Dmax: A549, A549 cells; for Dmax / DC50: 24 h; for DC50: read-out: SMARCA2 MSD A549 degradation 24 h: Average external-Abs DC50
Experimental: Example 53. MSD SMARCA2 Degradation in A549 Cell Line
Cells were seeded into 96-well plates (A549 cells: 2×10^4 cells/well/100 ul media) abd incubated overnight. The next day, 200 nl compound were added into the intermediate plate with Echo (Labcyte 550) from source plate containing a 3-fold serial dilution from top concentration of 1 mM. The culture medium was changed with 80 ul of fresh medium and 80 ul of 2× compound solution was added into the well to make a final concentration of 1000 nM, 333.3 nM, 111.1 nM, 37.04 nM, 12.35 nM, 4.115 nM, 1.372 nM, 0.457 nM, 0.152 nM and 0 nM (DMSO). The wells were mixed and then incubated for 24 hours. The media was aspirated from the cultures and 60 ul pre-chilled PIPA lysis buffer (Boston BioProducts BP-115D) with protease/phosphatase inhibitor (Roche 05892791001/Roche 04906837001) was added into the well to lyze the cells for 20 minutes at 4° C. The MSD plate (L15XA) was coated with 40 ul cell lysate and incubated at 4° C. overnight. The next day, the plate was washed three times with TBST (CST #9997S), 150 ul/well. The MSD plates was blocked with 150 ul blocking buffer per well and shaked for 1 hr at R^†, 600 rpm. The blocking buffer was 3% Blocker A (MSD, R93BA-4) in TBST. The MSD plate was washed three times with 150 ul/well of TBST and 25 ul/well of detection antibody (Rabbit anti-SMARCA2/BRM antibody, 100 μg/ml, ab223735) was added at final concentration of 1 ug/mi diluted in 1% o Blocking buffer and shaken for 1 hour at R^†, 600 rpm. The MSD plate was washed three times with 150 ul/well of TBST and 25 ul/well of SULFO-TAG anti-rabbit antibody (MSD, R32AB-1) was added at final concentration of 1 μg/ml diluted in […] Blocking buffer and shaken for 1 hour at R^†, 600 rpm. The MSD plate was washed three times with 150 ul/well of TBST and 150 ul/well of 2×MSD reading buffer diluted from 4× (MSD, R92TC-2) with water was added. Lastly, the MSD instrument was read.
as §3, with “SMARCA2” for “SMARCA”, “% o)” for “%)”, “(>90% o” for “(>90%”, “(>70-90% o” for “(>70-90%”, “(50-70% o” for “(50-70%”

T1 sequence (P51532 whole entry): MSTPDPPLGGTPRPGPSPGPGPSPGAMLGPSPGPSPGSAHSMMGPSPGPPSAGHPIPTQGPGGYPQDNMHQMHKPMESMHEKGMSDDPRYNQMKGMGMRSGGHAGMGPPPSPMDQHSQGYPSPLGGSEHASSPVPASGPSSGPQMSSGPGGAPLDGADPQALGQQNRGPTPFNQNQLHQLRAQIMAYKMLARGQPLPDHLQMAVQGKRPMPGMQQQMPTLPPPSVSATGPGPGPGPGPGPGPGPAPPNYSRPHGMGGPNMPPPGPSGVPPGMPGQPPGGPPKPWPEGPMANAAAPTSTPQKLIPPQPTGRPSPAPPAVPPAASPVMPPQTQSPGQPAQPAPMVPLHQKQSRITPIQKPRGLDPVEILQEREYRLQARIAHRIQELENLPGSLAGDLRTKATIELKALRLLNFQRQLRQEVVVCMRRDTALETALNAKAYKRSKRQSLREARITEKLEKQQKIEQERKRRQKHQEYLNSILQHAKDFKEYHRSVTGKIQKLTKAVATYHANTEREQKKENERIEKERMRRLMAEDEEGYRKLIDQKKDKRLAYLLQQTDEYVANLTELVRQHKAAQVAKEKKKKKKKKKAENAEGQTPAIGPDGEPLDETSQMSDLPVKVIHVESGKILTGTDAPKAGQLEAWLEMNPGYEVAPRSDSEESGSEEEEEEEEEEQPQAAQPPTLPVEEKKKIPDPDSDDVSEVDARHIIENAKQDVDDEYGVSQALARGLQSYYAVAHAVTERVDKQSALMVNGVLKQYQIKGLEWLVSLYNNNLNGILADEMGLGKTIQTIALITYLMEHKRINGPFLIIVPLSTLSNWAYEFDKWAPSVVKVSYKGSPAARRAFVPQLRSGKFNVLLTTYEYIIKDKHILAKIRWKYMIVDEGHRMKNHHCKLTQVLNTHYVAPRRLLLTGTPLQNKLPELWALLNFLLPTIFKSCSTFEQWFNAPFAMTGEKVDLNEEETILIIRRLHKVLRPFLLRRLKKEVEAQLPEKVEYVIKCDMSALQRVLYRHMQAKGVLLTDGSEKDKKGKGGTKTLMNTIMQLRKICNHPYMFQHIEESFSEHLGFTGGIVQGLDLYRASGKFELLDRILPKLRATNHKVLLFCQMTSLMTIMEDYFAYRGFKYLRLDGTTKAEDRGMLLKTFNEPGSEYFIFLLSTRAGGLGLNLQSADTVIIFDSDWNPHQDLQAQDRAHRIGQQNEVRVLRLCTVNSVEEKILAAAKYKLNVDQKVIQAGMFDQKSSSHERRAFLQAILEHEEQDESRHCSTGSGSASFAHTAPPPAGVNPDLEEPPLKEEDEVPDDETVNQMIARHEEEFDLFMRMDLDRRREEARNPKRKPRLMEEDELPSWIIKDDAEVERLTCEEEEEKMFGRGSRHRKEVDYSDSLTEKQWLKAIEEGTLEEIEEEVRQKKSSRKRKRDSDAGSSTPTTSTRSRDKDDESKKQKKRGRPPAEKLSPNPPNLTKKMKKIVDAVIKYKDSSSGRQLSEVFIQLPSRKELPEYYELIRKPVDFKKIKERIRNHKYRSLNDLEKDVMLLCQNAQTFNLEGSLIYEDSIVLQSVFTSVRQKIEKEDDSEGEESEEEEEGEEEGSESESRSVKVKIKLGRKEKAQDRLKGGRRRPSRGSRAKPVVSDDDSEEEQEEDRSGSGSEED
T2 sequence (P51531 whole entry): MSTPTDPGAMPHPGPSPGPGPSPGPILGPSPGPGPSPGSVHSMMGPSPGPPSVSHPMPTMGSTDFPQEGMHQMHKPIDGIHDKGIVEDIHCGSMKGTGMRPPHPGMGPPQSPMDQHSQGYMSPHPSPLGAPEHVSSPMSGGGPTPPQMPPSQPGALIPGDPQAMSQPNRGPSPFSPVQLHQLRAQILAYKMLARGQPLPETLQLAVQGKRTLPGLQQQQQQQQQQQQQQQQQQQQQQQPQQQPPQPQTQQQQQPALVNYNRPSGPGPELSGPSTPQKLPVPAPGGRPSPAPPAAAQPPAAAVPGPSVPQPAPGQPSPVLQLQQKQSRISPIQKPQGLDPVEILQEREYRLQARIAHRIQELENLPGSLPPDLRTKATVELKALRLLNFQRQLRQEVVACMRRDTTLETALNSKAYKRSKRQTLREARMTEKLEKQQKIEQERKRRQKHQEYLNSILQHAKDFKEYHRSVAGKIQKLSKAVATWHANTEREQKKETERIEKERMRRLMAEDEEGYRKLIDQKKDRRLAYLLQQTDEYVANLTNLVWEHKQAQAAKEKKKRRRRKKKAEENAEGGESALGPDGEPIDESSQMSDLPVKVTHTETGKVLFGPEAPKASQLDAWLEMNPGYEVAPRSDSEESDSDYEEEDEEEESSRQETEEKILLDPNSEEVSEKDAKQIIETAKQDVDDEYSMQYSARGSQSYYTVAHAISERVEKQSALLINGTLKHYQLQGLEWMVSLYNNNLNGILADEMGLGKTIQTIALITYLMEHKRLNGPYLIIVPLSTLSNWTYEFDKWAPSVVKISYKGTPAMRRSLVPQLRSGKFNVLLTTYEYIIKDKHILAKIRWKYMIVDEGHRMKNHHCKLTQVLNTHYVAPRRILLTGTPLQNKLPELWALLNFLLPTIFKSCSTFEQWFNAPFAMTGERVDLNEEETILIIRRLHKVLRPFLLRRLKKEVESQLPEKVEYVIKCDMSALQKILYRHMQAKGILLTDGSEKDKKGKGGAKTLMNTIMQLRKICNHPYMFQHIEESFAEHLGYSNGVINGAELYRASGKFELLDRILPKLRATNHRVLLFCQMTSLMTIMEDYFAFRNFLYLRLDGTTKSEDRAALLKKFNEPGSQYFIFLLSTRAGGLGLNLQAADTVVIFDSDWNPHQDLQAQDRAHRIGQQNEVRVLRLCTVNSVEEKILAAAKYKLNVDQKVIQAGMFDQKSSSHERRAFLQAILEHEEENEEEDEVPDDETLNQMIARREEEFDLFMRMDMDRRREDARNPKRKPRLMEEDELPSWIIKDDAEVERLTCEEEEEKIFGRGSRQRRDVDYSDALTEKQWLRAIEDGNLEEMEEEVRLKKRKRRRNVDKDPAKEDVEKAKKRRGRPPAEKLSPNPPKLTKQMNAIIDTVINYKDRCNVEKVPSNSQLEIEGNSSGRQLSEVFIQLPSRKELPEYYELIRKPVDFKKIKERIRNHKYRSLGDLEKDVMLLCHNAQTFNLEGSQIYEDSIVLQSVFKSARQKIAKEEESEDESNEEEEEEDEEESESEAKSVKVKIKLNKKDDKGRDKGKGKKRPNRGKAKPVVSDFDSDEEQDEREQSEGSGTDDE

Row | SMILES | Dmax (SMARCA4) [%] | DC50 (SMARCA4; MV4-11 cells) [nM] | Dmax (SMARCA2 [1]) [%] | DC50 (SMARCA2 [1]; MV4-11 cells) [nM] | Dmax (SMARCA2 [2]) [%] | DC50 (SMARCA2 [2]; A549 cells) [nM] | SMARCA4 MSD MV411 degradation 24 h: average Dmax % (SMARCA4; MV4-11 cells) | SMARCA2 MSD MV411 degradation 24 h: average Dmax % (SMARCA2 [1]; MV4-11 cells) | SMARCA2 MSD A549 degradation 24 h: Average Dmax % (SMARCA2 [2]; A549 cells)
1 | Cc1ncsc1-c1ccc(CNC(=O)[C@@H]2C[C@@H](O)CN2C(=O)[C@@H](NC(=O)[C@H]2CCC3(CC2)C[C@H](N2CCC(c4cnc(N5C6CCC5CN(c5cc(-c7ccccc7O)nnc5N)C6)nc4)CC2)C3)C(C)(C)C)cc1 (stereo partly drawn) [I-42, (2S,4R)-1-((2S)-2-(2-(4-(2-(3-(3-amino-6-(2-hydroxyphenyl)pyridazin-4-yl)-3,8-diazabicyclo[3.2.1]octan-8-yl)pyrimidin-5-yl)piperidin-1-yl)spiro[3.5]nonane-7-carboxamido)-3,3-dimethylbutanoyl)-4-hydroxy-N-(4-(4-methylthiazol-5-yl)benzyl)pyrrolidine-2-carboxamide] | < 50 | > 1000 | 70 to 90 | < 100 | 70 to 90 | 100 to 500 |  |  | 
2 | Cc1ncsc1-c1ccc(CNC(=O)[C@@H]2C[C@@H](O)CN2C(=O)[C@@H](NC(=O)CN2CC3(C2)CN(C2CCC(c4cnc(N5C6CCC5CN(c5cc(-c7ccccc7O)nnc5N)C6)nc4)CC2)C3)C(C)(C)C)cc1 (stereo partly drawn) [I-76, (2S,4R)-1-((2S)-2-(2-(6-(4-(2-(3-(3-amino-6-(2-hydroxyphenyl)pyridazin-4-yl)-3,8-diazabicyclo[3.2.1]octan-8-yl)pyrimidin-5-yl)cyclohexyl)-2,6-diazaspiro[3.3]heptan-2-yl)acetamido)-3,3-dimethylbutanoyl)-4-hydroxy-N-(4-(4-methylthiazol-5-yl)benzyl)pyrrolidine-2-carboxamide] | > 90 | < 100 | > 90 | < 100 | > 90 | 501 to 1000 |  |  | 
3 | Cc1ncsc1-c1ccc(CNC(=O)[C@@H]2C[C@@H](O)CN2C(=O)[C@@H](NC(=O)[C@H]2CC3(C2)C[C@H](N2CCC(Oc4ccc(N5C6CCC5CN(c5cc(-c7ccccc7O)nnc5N)C6)cn4)CC2)C3)C(C)(C)C)cc1 (stereo partly drawn) [I-39, (2S,4R)-1-((2S)-2-(6-(4-((5-(3-(3-amino-6-(2-hydroxyphenyl)pyridazin-4-yl)-3,8-diazabicyclo[3.2.1]octan-8-yl)pyridin-2-yl)oxy)piperidin-1-yl)spiro[3.3]heptane-2-carboxamido)-3,3-dimethylbutanoyl)-4-hydroxy-N-(4-(4-methylthiazol-5-yl)benzyl)pyrrolidine-2-carboxamide] | > 90 | > 1000 | 70 to 90 | 100 to 500 | 50 to 70 | > 1000 |  |  | 
4 | Cn1nccc1-c1ccc(CNC(=O)[C@@H]2C[C@@H](O)CN2C(=O)[C@@H](NC(=O)[C@H]2CC3(C2)C[C@H](N2CCC(c4cnc(N5C6CCC5CN(c5cc(-c7ccccc7O)nnc5N)C6)nc4)CC2)C3)C(C)(C)C)cc1 (stereo partly drawn) [I-35, (2S,4R)-1-((2S)-2-(6-(4-(2-(3-(3-amino-6-(2-hydroxyphenyl)pyridazin-4-yl)-3,8-diazabicyclo[3.2.1]octan-8-yl)pyrimidin-5-yl)piperidin-1-yl)spiro[3.3]heptane-2-carboxamido)-3,3-dimethylbutanoyl)-4-hydroxy-N-(4-(1-methyl-1H-pyrazol-5-yl)benzyl)pyrrolidine-2-carboxamide] | 50 to 70 | > 1000 | 70 to 90 | < 100 | 70 to 90 | 100 to 500 |  |  | 
5 | Cn1nccc1-c1ccc(CNC(=O)[C@@H]2C[C@@H](O)CN2C(=O)[C@@H](NC(=O)[C@H]2CC3(C2)C[C@H](N2CCC(c4cnc(N5C6CCC5CN(c5cc(-c7ccccc7O)nnc5N)C6)nc4)CC2)C3)C(C)(C)C)cc1 (stereo partly drawn) [I-36, (2S,4R)-1-((2S)-2-(6-(4-(2-(3-(3-amino-6-(2-hydroxyphenyl)pyridazin-4-yl)-3,8-diazabicyclo[3.2.1]octan-8-yl)pyrimidin-5-yl)piperidin-1-yl)spiro[3.3]heptane-2-carboxamido)-3,3-dimethylbutanoyl)-4-hydroxy-N-(4-(1-methyl-1H-pyrazol-5-yl)benzyl)-pyrrolidine-2-carboxamide] |  | > 1000 |  | < 100 |  | 100 to 500 | D (D (<50% degradation)) | B (B (>70-90% degradation)) | B (B (>70-90% o degradation))
6 | Cc1ncsc1-c1ccc(CNC(=O)[C@@H]2C[C@@H](O)CN2C(=O)[C@@H](c2cc(OCCCCN3CCC(c4cnc(N5C6CCC5CN(c5cc(-c7ccccc7O)nnc5N)C6)nc4)CC3)no2)C(C)C)cc1 [I-55, (2S,4R)-1-((2R)-2-(3-(4-(4-(2-(3-(3-amino-6-(2-hydroxyphenyl)pyridazin-4-yl)-3,8-diazabicyclo[3.2.1]octan-8-yl)pyrimidin-5-yl)piperidin-1-yl)butoxy)isoxazol-5-yl)-3-methylbutanoyl)-4-hydroxy-N-(4-(4-methylthiazol-5-yl)benzyl)pyrrolidine-2-carboxamide] | > 90 | < 100 | > 90 | < 100 | > 90 | < 100 |  |  | 
7 | Cc1ncsc1-c1ccc(CNC(=O)[C@@H]2C[C@H](O)CN2C(=O)[C@@H](NC(=O)[C@H]2CC3(C2)C[C@H](N2CCC(c4cnc(N5C6CCC5CN(c5cc(-c7ccccc7O)nnc5N)C6)nc4)CC2)C3)C(C)(C)C)cc1 (stereo partly drawn) [I-80, (2S,4S)-1-((2S)-2-(6-(4-(2-(3-(3-amino-6-(2-hydroxyphenyl)pyridazin-4-yl)-3,8-diazabicyc-lo[3.2.1]octan-8-yl)pyrimidin-5-yl)piperidin-1-yl)spiro[3.3]heptane-2-carboxamido)-3,3-dimethylbutanoyl)-4-hydroxy-N-(4-(4-methylthiazol-5-yl)benzyl)pyrrolidine-2-carbox-amide] |  | > 1000 |  |  |  | > 1000 |  |  | 
